Patent US9073855B2, “BCL-2 selective apoptosis-inducing agents for the treatment of cancer and immune diseases” (AbbVie Inc., priority 2008, dated 2015)
pEC50, pKi: −log10 of the molar value.

Assays:
[1] = target: GST-Bcl-2 (Homo sapiens, UniProt P10415); test: TR-FRET binding assay, GST-Bcl-2 with F-Bak peptide probe; conditions: for pKi: TR-FRET Binding Affinity, GST-Bcl-2, F-Bak peptide probe; for Binding selectivity ratio (Bcl-XL Ki/Bcl-2 Ki): ratio of TR-FRET Ki values, Bcl-XL over Bcl-2
Method in brief: (§1)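 Compounds were serially diluted in DMSO from a 50 μM starting solution (2× the starting concentration; 10% DMSO). Plates were incubated for 3 h at room temperature, and TR-FRET was read with 340/35 nm excitation and emission at 520/525 nm (F-Bak) and 495/510 nm (Tb antibody). Ki values were calculated using Wang's competitive-binding equation.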

[2] = target: GST-Bcl-XL (Homo sapiens, UniProt Q07817); test: TR-FRET binding assay, GST-Bcl-XL with F-Bak peptide probe; conditions: TR-FRET Binding Affinity, GST-Bcl-XL, F-Bak peptide probe
Method in brief: as §1

[3] = system: FL5.12/Bcl-2 cells; test: FL5.12/Bcl-2 cell viability assay under IL-3 withdrawal (CellTitre Glo); type: cell-based, murine; conditions: Mus musculus, IL-3 withdrawn 48 hrs, then 24 hrs with compound
Method in brief: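 Viability measured with CellTiter-Glo after 24 h compound treatment at various concentrations, following 48 h IL-3 withdrawal (no WEHI-3B medium). Cells: prolymphocytic mouse FL5.12 line stably transfected to overexpress Bcl-2, cultured at 37 °C, 5% CO2.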

Sequence of GST-Bcl-XL (Q07817 whole entry): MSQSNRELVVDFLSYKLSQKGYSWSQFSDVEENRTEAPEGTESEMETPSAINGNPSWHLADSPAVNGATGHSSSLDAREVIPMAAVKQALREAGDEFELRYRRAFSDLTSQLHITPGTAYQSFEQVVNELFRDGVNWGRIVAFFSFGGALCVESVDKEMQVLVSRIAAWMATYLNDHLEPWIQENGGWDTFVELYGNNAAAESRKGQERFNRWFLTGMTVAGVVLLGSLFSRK
Sequence of GST-Bcl-2 (P10415 whole entry): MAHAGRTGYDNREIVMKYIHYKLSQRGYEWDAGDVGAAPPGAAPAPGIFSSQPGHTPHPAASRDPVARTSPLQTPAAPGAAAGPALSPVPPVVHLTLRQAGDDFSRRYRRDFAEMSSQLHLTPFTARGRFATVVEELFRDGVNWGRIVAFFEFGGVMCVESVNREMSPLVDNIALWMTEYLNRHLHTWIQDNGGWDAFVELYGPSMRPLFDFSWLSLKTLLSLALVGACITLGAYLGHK

Row | Structure (SMILES) | pKi [1] | pKi [2] | pEC50 [3] | Binding selectivity ratio (Bcl-XL Ki/Bcl-2 Ki) [1]
1 | CCN(CC)C1CCC(Nc2ccc(S(=O)(=O)NC(=O)c3ccc(N4CCN(CC5=C(c6ccc(Cl)cc6)CC(C)(C)CC5)CC4)cc3Oc3ccc4[nH]ccc4c3)cc2[N+](=O)[O-])CC1 (centres unmarked) [Example 201, 4-(4-{[2-(4-chlorophenyl)-4,4-dimethylcyclohex-1-en-1-yl]methyl}piperazin-1-yl)-N-[(4-{[4-(diethylamino)cyclohexyl]amino}-3-nitrophenyl)sulfonyl]-2-(1H-indol-5-yloxy)benzamide] | 9.90 | 7.61 | 7.76 | 
2 | CC1(C)CCC(CN2CCN(c3ccc(C(=O)NS(=O)(=O)c4ccc(NC5CCC(F)(F)CC5)c([N+](=O)[O-])c4)c(Oc4ccc5[nH]ccc5c4)c3)CC2)=C(c2ccc(Cl)cc2)C1 [Example 305, 4-(4-{[2-(4-chlorophenyl)-4,4-dimethylcyclohex-1-en-1-yl]methyl}piperazin-1-yl)-N-({4-[(4,4-difluorocyclohexyl)amino]-3-nitrophenyl}sulfonyl)-2-(1H-indol-5-yloxy)benzamide] | 8.43 | < 6.18 | < 6.30 | 
3 | COCCNC(=O)c1ccc(S(=O)(=O)NC(=O)c2ccc(N3CCN(CC4=C(c5ccc(Cl)cc5)CC(C)(C)CC4)CC3)cc2Oc2ccc3[nH]ccc3c2)cc1 [Example 332, 4-(4-{[2-(4-chlorophenyl)-4,4-dimethylcyclohex-1-en-1-yl]methyl}piperazin-1-yl)-2-(1H-indol-5-yloxy)-N-[(4-{[(2-methoxyethyl)amino]carbonyl}phenyl)sulfonyl]benzamide] | 7.90 | < 6.18 | < 6.30 | 
4 | CC1(C)CCC(CN2CCN(c3ccc(C(=O)NS(=O)(=O)c4ccc(NCC5(CO)CCOCC5)c([N+](=O)[O-])c4)c(Oc4ccc5[nH]ccc5c4)c3)CC2)=C(c2ccc(Cl)cc2)C1 [Example 232, 4-(4-{[2-(4-chlorophenyl)-4,4-dimethylcyclohex-1-en-1-yl]methyl}piperazin-1-yl)-N-{[4-({[4-(hydroxymethyl)tetrahydro-2H-pyran-4-yl]methyl}amino)-3-nitrophenyl]sulfonyl}-2-(1H-indol-5-yloxy)benzamide] | 9.34 | 6.70 | 7.91 | 
5 | CC1(C)CCC(CN2CCN(c3ccc(C(=O)NS(=O)(=O)c4ccc(NC5CCN(C6Cc7ccccc7C6)CC5)c([N+](=O)[O-])c4)c(Oc4cccc5[nH]ccc45)c3)CC2)=C(c2ccc(Cl)cc2)C1 [Example 227, 4-(4-{[2-(4-chlorophenyl)-4,4-dimethylcyclohex-1-en-1-yl]methyl}piperazin-1-yl)-N-[(4-{[1-(2,3-dihydro-1H-inden-2-yl)piperidin-4-yl]amino}-3-nitrophenyl)sulfonyl]-2-(1H-indol-4-yloxy)benzamide] | 8.17 | < 6.18 | < 6.30 | 
6 | CC1(C)CCC(CN2CCN(c3ccc(C(=O)NS(=O)(=O)c4cnc(OCC5(F)CCOCC5)c(Cl)c4)c(Oc4cccc5[nH]ccc45)c3)CC2)=C(c2ccc(Cl)cc2)C1 [Example 405, N-({5-chloro-6-[(4-fluorotetrahydro-2H-pyran-4-yl)methoxy]pyridin-3-yl}sulfonyl)-4-(4-{[2-(4-chlorophenyl)-4,4-dimethylcyclohex-1-en-1-yl]methyl}piperazin-1-yl)-2-(1H-indol-4-yloxy)benzamide] | 10.40 | 7.26 | 7.93 | 1394.8
7 | O=C(NS(=O)(=O)c1ccc(NCC2CCOCC2)c([N+](=O)[O-])c1)c1ccc(N2CCN(Cc3ccc(C(F)(F)F)cc3-c3ccc(Cl)cc3)CC2)cc1Oc1ccc2[nH]ccc2c1 [Example 339, 4-(4-{[4′-chloro-5-(trifluoromethyl)-1,1′-biphenyl-2-yl]methyl}piperazin-1-yl)-2-(1H-indol-5-yloxy)-N-({3-nitro-4-[(tetrahydro-2H-pyran-4-ylmethyl)amino]phenyl}sulfonyl)benzamide] | 7.85 | < 6.18 | < 6.30 | 
8 | CC1(C)CCC(CN2CCN(c3ccc(C(=O)NS(=O)(=O)c4ccc(NCC5CCOCC5)c(C#N)c4)c(Oc4cccc5[nH]ccc45)c3)CC2)=C(c2ccc(Cl)cc2)C1 [Example 366, 4-(4-{[2-(4-chlorophenyl)-4,4-dimethylcyclohex-1-en-1-yl]methyl}piperazin-1-yl)-N-({3-cyano-4-[(tetrahydro-2H-pyran-4-ylmethyl)amino]phenyl}sulfonyl)-2-(1H-indol-4-yloxy)benzamide] | 8.26 | < 6.18 | < 6.30 | 
9 | CC1(C)CCC(CN2CCN(c3ccc(C(=O)NS(=O)(=O)c4ccc(OCC5(F)CCOCC5)c([N+](=O)[O-])c4)c(Oc4cccc5[nH]ccc45)c3)CC2)=C(c2ccc(Cl)cc2)C1 [Example 306, 4-(4-{[2-(4-chlorophenyl)-4,4-dimethylcyclohex-1-en-1-yl]methyl}piperazin-1-yl)-N-({4-[(4-fluorotetrahydro-2H-pyran-4-yl)methoxy]-3-nitrophenyl}sulfonyl)-2-(1H-indol-4-yloxy)benzamide] | 10.11 | 7.32 | 8.15 | 
10 | CC1(C)CCC(CN2CCN(c3ccc(C(=O)NS(=O)(=O)c4ccc(NCC(F)(F)F)c([N+](=O)[O-])c4)c(Oc4cccc5[nH]ccc45)c3)CC2)=C(c2ccc(Cl)cc2)C1 [Example 343, 4-(4-{[2-(4-chlorophenyl)-4,4-dimethylcyclohex-1-en-1-yl]methyl}piperazin-1-yl)-2-(1H-indol-4-yloxy)-N-({3-nitro-4-[(2,2,2-trifluoroethyl)amino]phenyl}sulfonyl)benzamide] | 9.24 | < 6.18 | 7.26 | 
11 | CC(C)(C)CCNc1ccc(S(=O)(=O)NC(=O)c2ccc(N3CCN(CC4=C(c5ccc(Cl)cc5)CC(C)(C)CC4)CC3)cc2Oc2ccc3[nH]ccc3c2)cc1[N+](=O)[O-] [Example 368, 4-(4-{[2-(4-chlorophenyl)-4,4-dimethylcyclohex-1-en-1-yl]methyl}piperazin-1-yl)-N-({4-[(3,3-dimethylbutyl)amino]-3-nitrophenyl}sulfonyl)-2-(1H-indol-5-yloxy)benzamide] | < 5.92 | < 6.18 | < 6.30 | 
12 | CC1(C)CCC(CN2CCN(c3ccc(C(=O)NS(=O)(=O)c4ccc(NC5CCN(CCCC(F)(F)F)CC5)c([N+](=O)[O-])c4)c(Oc4cccc5[nH]ccc45)c3)CC2)=C(c2ccc(Cl)cc2)C1 [Example 210, 4-(4-{[2-(4-chlorophenyl)-4,4-dimethylcyclohex-1-en-1-yl]methyl}piperazin-1-yl)-2-(1H-indol-4-yloxy)-N-[(3-nitro-4-{[1-(4,4,4-trifluorobutyl)piperidin-4-yl]amino}phenyl)sulfonyl]benzamide] | 9.20 | < 6.18 | 6.59 | 
13 | CC1(C)CCC(CN2CCN(c3ccc(C(=O)NS(=O)(=O)c4ccc(NC5CCN(CCCO)CC5)c([N+](=O)[O-])c4)c(Oc4ccc5[nH]ccc5c4)c3)CC2)=C(c2ccc(Cl)cc2)C1 [Example 197, 4-(4-{[2-(4-chlorophenyl)-4,4-dimethylcyclohex-1-en-1-yl]methyl}piperazin-1-yl)-N-[(4-{[1-(3-hydroxypropyl)piperidin-4-yl]amino}-3-nitrophenyl)sulfonyl]-2-(1H-indol-5-yloxy)benzamide] | 10.60 | 8.32 | 8.21 | 
14 | CC(C)Oc1cc(-c2ccc(Cl)cc2)c(CN2CCN(c3ccc(C(=O)NS(=O)(=O)c4ccc(NCC5CCOCC5)c([N+](=O)[O-])c4)c(Oc4ccc5[nH]ccc5c4)c3)CC2)cn1 [Example 330, 4-(4-{[4-(4-chlorophenyl)-6-isopropoxypyridin-3-yl]methyl}piperazin-1-yl)-2-(1H-indol-5-yloxy)-N-({3-nitro-4-[(tetrahydro-2H-pyran-4-ylmethyl)amino]phenyl}sulfonyl)benzamide] | 7.13 | < 6.18 | < 6.30 | 
15 | CC1(C)CCC(CN2CCN(c3ccc(C(=O)NS(=O)(=O)c4ccc(NCC5CN(C6CC6)CCO5)c([N+](=O)[O-])c4)c(Oc4cccc5[nH]ncc45)c3)CC2)=C(c2ccc(Cl)cc2)C1 (centres unmarked) [Example 411, 4-(4-{[2-(4-chlorophenyl)-4,4-dimethylcyclohex-1-en-1-yl]methyl}piperazin-1-yl)-N-[(4-{[(4-cyclopropylmorpholin-2-yl)methyl]amino}-3-nitrophenyl)sulfonyl]-2-(1H-indazol-4-yloxy)benzamide] | 11.52 | 8.13 | 7.94 | 2352.3
16 | CC1(C)CCC(CN2CCN(c3ccc(C(=O)NS(=O)(=O)c4ccc(NCCN5CCOCC5)c(S(=O)(=O)C(F)(F)F)c4)c(Oc4ccc5[nH]ccc5c4)c3)CC2)=C(c2ccc(Cl)cc2)C1 [Example 351, 4-(4-{[2-(4-chlorophenyl)-4,4-dimethylcyclohex-1-en-1-yl]methyl}piperazin-1-yl)-2-(1H-indol-5-yloxy)-N-({4-[(2-morpholin-4-ylethyl)amino]-3-[(trifluoromethyl)sulfonyl]phenyl}sulfonyl)benzamide] | 8.80 | < 6.18 | 6.46 | 
17 | CC1(C)CCC(CN2CCN(c3ccc(C(=O)NS(=O)(=O)c4cnc(OCC5CCOCC5)c(-c5nccs5)c4)c(Oc4ccc5[nH]ccc5c4)c3)CC2)=C(c2ccc(Cl)cc2)C1 [Example 331, 4-(4-{[2-(4-chlorophenyl)-4,4-dimethylcyclohex-1-en-1-yl]methyl}piperazin-1-yl)-2-(1H-indol-5-yloxy)-N-{[6-(tetrahydro-2H-pyran-4-ylmethoxy)-5-(1,3-thiazol-2-yl)pyridin-3-yl]sulfonyl}benzamide] | 8.08 | < 6.18 | < 6.30 | 
